Data from ChEMBL document CHEMBL4152373 (Bioorg Med Chem, 2018).

Tests used:
[1] = biological target: T1, Free fatty acid receptor 4 (Homo sapiens) (UniProt Q5NUL3); test: Antagonist activity at FFA4R (unknown origin) at 10 uM by aequorin based assay relative to control; format: functional
T1 sequence (whole entry): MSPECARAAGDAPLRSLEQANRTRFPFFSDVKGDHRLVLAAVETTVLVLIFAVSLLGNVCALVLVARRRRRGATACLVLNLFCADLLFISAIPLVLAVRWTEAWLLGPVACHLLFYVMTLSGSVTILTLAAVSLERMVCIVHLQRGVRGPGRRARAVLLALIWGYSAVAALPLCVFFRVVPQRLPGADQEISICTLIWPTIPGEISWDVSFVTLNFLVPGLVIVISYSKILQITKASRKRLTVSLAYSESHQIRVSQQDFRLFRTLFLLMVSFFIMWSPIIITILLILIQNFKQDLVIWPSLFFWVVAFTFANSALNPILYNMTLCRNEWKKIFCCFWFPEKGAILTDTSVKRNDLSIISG

[2] = biological target: T2, Glucocorticoid receptor (Homo sapiens) (UniProt P04150); details: 10 uM
T2 sequence (whole entry): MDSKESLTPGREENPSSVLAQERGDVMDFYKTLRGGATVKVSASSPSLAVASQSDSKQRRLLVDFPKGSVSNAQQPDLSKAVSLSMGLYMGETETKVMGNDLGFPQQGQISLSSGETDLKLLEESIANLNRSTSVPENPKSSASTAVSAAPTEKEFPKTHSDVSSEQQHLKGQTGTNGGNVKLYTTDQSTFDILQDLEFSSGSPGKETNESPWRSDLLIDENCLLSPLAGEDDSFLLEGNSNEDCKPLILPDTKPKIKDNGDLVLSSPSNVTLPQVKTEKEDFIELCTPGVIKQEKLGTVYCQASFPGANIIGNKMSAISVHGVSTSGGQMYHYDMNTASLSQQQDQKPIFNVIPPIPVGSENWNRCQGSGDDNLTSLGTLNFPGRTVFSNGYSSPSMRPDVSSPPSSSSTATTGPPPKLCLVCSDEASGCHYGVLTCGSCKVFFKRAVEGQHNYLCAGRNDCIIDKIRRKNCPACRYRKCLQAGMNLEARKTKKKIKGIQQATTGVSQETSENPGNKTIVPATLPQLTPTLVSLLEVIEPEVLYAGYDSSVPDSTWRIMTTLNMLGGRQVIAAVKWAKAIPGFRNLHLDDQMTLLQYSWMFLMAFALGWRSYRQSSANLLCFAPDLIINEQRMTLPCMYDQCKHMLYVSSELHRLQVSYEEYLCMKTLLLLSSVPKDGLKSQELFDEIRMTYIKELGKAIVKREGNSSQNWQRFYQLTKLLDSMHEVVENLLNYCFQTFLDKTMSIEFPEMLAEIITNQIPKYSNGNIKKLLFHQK
Description: Antagonist activity at GCR (unknown origin) at 10 uM by cAMP accumulation based assay relative to control

[3] = biological target: Glucagon-like peptide 1 receptor (Homo sapiens) (UniProt P43220); details: 10 uM
Chain of Glucagon-like peptide 1 receptor (Homo sapiens) (P43220 whole entry): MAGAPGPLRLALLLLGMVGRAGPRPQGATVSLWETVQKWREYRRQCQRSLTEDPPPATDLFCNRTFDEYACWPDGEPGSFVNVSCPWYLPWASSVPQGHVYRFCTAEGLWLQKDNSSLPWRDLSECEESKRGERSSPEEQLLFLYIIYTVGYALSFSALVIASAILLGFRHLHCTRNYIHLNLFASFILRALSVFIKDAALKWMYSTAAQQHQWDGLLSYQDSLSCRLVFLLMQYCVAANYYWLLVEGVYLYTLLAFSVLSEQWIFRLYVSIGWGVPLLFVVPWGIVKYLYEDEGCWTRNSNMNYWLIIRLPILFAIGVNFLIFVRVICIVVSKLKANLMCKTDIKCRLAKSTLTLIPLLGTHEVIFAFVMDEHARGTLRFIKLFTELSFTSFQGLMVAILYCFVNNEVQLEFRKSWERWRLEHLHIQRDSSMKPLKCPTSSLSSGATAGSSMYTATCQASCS
Description: Antagonist activity at GLP1R (unknown origin) at 10 uM by cAMP accumulation based assay relative to control

## COc1ccc(-c2ccccc2-c2csc(N(C(=O)[C@@H](CC(=O)O)CC3CCCC3)C3CC3)n2)cn1
[1]
  inhibition: 16%
[2]
  inhibition: < 10%
[3]
  inhibition: < 10%
